Reference: ChEMBL document CHEMBL5584345, “Discovery of Novel 2-Aminopyridine-Based and 2-Aminopyrimidine-Based Derivatives as Potent CDK/HDAC Dual Inhibitors for the Treatment of Refractory Solid Tumors and Hematological Malignancies” (J Med Chem, 2024)
One block for each compound: values may come before it.

Tests used:
Histone deacetylase 4 = Histone deacetylase 4 (Homo sapiens, UniProt P56524); test: Inhibition of human recombinant HDAC4 using Ac-Leu-Gly-Lys(Tfa)-AMC as substrate incubated for 24 hrs by fluorescence based Envision plate reader analysis
[1] = target: Cyclin-dependent kinase 7 (Homo sapiens, UniProt P50613)
Description: Inhibition of CDK7 (unknown origin) using ULight 4EBP1 peptide as substrate incubated for 2 hrs in presence of ATP by FRET assay

MV4-11 [2] = test: Antitumor activity against human MV4-11 cells xenografted in female nu/nu mouse assessed as test to control ratio at 50 mg/kg, sc bid for 19 days; assay type: functional; conditions: time 19 day
[3] = target: Receptor-type tyrosine-protein kinase FLT3 (Homo sapiens, UniProt P36888); test: Inhibition of FLT3 (unknown origin)
[4] = target: Serine/threonine-protein kinase Chk1 (Homo sapiens, UniProt O14757); test: Inhibition of CHK1 (unknown origin)
[5] = target: Tyrosine-protein kinase JAK3 (Homo sapiens, UniProt P52333); test: Inhibition of JAK3 (unknown origin)
[6] = target: Serine/threonine-protein kinase pim-1 (Homo sapiens, UniProt P11309); test: Inhibition of PIM1 (unknown origin)
[7] = target: Epidermal growth factor receptor (Homo sapiens, UniProt P00533); test: Inhibition of EGFR (unknown origin)
[8] = target: Serine/threonine-protein kinase 17B (Homo sapiens, UniProt O94768); test: Inhibition of DRAK2 (unknown origin)
[9] = target: Ribosomal protein S6 kinase beta-1 (Homo sapiens, UniProt P23443); test: Inhibition of P70S6K (unknown origin)
Aurora kinase A = Aurora kinase A (Homo sapiens, UniProt O14965); test: Inhibition of AurorA (unknown origin)
[10] = target: Interleukin-1 receptor-associated kinase 4 (Homo sapiens, UniProt Q9NWZ3); test: Inhibition of IRAK4 (unknown origin)
[11] = target: Tyrosine-protein kinase BTK (Homo sapiens, UniProt Q06187); test: Inhibition of BTK (unknown origin)
Histone deacetylase 3 = Histone deacetylase 3 (Homo sapiens, UniProt O15379)
[12] = target: Cyclin-dependent kinase 9 (Homo sapiens, UniProt P50750)
Description: Inhibition of CDK9 (unknown origin) using ULight 4EBP1 peptide as substrate incubated for 2 hrs in presence of ATP by FRET assay

Histone deacetylase 1 = Histone deacetylase 1 (Homo sapiens, UniProt Q13547)
Description: Inhibition of human recombinant HDAC1 using Ac-Lys-Tyr-Lys(eta-acetyl)-AMC as substrate incubated for 24 hrs by fluorescence based Envision plate reader analysis

[13] = target: Protein deacetylase HDAC6 (Homo sapiens, UniProt Q9UBN7)
Description: Inhibition of human recombinant HDAC6 using Boc-Lys(eta-acetyl)-AMC as substrate incubated for 24 hrs by fluorescence based Envision plate reader analysis

[14] = target: Cyclin-dependent kinase 2 (Homo sapiens, UniProt P24941); test: Inhibition of CDK2 (unknown origin) using ULight 4EBP1 peptide as substrate incubated for 2 hrs in presence of ATP by FRET assay
MV4-11 [15] = test: Antiproliferative activity against human MV4-11 cells incubated for 72 hrs by celltiter-glo luminescent assay; conditions: MV4-11, 72 h
CESS = test: Antiproliferative activity against human CESS cells incubated for 72 hrs by celltiter-glo luminescent assay
Rec1 = test: Antiproliferative activity against human REC1 cells incubated for 72 hrs by celltiter-glo luminescent assay; conditions: Rec1, 72 h
KG-1 = test: Antiproliferative activity against human KG-1 cells incubated for 72 hrs by celltiter-glo luminescent assay; conditions: KG-1, 72 h
PC-9 = test: Antiproliferative activity against human PC-9 cells incubated for 72 hrs by celltiter-glo luminescent assay; conditions: PC-9, 72 h
HT-29 = test: Antiproliferative activity against human HT-29 cells incubated for 72 hrs by celltiter-glo luminescent assay; conditions: HT-29, 72 h
A549 = test: Antiproliferative activity against human A549 cells incubated for 72 hrs by celltiter-glo luminescent assay; assay type: functional, cell-based; conditions: A549, 72 h

Chain of Cyclin-dependent kinase 9 (P50750 whole entry): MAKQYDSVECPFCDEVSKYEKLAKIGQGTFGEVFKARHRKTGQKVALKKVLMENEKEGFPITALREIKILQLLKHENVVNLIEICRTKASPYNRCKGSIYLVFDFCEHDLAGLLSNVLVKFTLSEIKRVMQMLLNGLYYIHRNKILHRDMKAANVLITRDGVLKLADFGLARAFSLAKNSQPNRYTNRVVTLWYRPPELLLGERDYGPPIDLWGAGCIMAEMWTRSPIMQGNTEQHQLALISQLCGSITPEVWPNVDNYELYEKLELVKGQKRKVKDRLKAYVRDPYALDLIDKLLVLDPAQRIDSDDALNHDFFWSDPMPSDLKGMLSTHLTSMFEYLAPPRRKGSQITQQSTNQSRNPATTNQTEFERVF
Chain of Cyclin-dependent kinase 7 (P50613 whole entry): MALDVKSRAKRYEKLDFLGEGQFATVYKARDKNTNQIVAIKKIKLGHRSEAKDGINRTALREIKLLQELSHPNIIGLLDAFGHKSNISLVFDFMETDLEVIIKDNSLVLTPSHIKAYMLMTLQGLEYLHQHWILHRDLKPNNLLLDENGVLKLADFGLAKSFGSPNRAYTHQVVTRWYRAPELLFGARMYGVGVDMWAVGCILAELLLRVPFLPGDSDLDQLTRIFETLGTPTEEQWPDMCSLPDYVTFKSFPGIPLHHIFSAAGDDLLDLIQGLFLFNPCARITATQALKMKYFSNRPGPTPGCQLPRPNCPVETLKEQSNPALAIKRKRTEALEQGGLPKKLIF
Chain of Histone deacetylase 4 (P56524 whole entry): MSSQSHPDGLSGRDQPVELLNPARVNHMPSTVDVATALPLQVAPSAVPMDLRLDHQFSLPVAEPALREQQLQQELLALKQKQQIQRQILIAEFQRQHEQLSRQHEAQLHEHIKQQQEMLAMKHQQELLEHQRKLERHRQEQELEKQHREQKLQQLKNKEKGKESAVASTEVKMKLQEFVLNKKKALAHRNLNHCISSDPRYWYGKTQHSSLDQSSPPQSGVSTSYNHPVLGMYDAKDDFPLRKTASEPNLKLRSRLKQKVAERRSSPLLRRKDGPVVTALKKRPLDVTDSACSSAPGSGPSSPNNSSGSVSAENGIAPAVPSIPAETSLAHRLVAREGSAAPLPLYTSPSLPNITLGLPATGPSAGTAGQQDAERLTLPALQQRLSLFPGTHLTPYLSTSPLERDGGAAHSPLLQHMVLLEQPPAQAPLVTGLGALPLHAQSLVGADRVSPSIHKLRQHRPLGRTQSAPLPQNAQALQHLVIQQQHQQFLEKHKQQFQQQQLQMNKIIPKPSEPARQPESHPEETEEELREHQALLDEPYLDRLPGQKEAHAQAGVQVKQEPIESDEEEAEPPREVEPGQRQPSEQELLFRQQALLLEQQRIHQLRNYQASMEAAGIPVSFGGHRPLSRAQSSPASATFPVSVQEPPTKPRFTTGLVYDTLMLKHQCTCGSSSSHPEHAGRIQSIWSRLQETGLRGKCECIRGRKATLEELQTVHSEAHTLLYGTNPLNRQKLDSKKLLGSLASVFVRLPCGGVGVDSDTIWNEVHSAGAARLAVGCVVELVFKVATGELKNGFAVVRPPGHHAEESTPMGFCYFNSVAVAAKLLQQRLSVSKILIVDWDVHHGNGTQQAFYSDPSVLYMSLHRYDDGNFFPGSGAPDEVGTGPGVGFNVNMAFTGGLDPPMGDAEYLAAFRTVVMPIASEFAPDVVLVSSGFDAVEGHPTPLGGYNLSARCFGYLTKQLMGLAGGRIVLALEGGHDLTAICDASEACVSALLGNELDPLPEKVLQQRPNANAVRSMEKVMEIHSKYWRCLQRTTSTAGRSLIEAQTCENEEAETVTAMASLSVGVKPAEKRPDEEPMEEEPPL
Chain of Epidermal growth factor receptor (P00533 whole entry): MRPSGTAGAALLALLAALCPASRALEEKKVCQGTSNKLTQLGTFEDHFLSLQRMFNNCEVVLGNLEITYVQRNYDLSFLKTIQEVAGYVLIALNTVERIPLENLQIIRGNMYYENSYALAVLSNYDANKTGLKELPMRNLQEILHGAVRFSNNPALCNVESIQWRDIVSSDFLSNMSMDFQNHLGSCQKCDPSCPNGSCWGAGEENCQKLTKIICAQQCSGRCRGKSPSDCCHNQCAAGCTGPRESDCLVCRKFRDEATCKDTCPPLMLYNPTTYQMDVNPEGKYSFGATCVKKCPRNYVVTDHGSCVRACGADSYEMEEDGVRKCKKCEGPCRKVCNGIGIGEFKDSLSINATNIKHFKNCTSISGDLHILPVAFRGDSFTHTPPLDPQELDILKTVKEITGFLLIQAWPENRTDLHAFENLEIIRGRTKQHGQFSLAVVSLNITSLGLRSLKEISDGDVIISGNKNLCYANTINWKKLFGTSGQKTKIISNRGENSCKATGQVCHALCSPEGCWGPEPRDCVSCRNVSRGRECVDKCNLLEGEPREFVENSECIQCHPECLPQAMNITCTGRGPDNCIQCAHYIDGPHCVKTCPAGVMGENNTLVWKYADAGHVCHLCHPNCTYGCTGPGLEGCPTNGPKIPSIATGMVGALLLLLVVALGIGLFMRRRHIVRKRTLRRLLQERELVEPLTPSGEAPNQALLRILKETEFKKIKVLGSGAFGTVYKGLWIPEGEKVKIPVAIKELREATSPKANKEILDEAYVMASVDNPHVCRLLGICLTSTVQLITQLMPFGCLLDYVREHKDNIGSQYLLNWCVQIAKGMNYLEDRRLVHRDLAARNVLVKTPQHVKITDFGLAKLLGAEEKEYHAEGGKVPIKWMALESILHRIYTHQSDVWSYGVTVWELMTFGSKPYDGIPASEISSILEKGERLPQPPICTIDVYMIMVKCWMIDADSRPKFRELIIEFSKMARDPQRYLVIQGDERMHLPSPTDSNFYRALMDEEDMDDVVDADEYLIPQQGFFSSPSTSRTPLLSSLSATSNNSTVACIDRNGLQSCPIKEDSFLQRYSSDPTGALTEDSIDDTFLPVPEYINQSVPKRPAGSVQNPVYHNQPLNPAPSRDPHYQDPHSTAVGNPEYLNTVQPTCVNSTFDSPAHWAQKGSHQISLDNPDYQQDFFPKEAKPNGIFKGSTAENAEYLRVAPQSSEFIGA
Chain of Histone deacetylase 3 (O15379 whole entry): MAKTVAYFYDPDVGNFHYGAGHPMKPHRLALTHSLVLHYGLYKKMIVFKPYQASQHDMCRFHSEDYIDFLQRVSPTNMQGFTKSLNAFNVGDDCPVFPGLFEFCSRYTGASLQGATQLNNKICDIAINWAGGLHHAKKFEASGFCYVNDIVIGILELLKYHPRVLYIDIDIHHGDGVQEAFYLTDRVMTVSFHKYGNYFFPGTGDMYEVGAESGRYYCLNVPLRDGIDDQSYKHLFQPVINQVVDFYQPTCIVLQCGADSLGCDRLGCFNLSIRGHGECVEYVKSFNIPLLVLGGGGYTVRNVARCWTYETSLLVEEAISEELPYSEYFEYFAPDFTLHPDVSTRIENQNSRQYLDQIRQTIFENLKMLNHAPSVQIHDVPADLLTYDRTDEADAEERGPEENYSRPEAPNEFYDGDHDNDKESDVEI
Chain of Serine/threonine-protein kinase Chk1 (O14757 whole entry): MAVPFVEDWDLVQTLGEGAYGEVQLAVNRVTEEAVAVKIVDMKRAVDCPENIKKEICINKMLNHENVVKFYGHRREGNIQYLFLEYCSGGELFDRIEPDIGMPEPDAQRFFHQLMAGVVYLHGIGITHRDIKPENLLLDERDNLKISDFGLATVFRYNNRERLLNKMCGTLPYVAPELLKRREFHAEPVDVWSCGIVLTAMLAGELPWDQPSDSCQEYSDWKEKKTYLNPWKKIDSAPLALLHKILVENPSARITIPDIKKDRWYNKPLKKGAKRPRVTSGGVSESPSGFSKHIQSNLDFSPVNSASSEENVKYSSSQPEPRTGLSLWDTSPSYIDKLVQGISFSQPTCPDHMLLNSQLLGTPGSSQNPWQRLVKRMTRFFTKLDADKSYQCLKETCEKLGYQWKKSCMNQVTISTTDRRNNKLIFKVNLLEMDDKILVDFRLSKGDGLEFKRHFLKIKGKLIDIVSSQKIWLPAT
Chain of Interleukin-1 receptor-associated kinase 4 (Q9NWZ3 whole entry): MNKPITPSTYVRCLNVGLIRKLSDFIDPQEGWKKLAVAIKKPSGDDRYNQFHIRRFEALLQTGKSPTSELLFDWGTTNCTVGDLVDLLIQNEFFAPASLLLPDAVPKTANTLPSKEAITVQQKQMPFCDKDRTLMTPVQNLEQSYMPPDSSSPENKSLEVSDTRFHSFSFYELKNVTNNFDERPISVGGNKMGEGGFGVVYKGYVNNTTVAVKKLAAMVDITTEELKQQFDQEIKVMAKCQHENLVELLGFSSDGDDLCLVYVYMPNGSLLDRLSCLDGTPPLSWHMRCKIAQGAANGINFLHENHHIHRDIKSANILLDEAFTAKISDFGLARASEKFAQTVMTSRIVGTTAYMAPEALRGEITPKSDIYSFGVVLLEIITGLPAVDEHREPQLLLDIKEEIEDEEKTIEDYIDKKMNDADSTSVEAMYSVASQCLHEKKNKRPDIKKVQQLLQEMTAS
Chain of Serine/threonine-protein kinase 17B (O94768 whole entry): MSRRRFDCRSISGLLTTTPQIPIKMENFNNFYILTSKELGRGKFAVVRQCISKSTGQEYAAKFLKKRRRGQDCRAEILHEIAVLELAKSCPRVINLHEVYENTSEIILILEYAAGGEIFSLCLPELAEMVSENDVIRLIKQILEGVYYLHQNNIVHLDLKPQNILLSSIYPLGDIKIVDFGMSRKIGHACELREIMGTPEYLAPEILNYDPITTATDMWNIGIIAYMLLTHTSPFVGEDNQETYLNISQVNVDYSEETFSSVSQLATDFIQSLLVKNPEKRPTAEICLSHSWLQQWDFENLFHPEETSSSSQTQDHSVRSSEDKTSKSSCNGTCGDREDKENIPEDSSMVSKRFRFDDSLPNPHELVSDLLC

Compound: Nc1ccn([C@@H]2O[C@H](CO)[C@@H](O)[C@@H]2O)c(=O)n1 [CYTARABINE]
T/C (MV4-11 [2]): 33.41%

Compound: N#CC1(CNc2cccc(-c3cc(Nc4cnn(Cc5ccc(C(=O)Nc6ccccc6N)cc5)c4)ncc3Cl)n2)CCOCC1
IC50 (Histone deacetylase 4): > 20 µM
IC50 [3]: > 10 µM
IC50 [4]: > 10 µM
IC50 [5]: > 10 µM
IC50 [6]: > 10 µM
IC50 [7]: > 10 µM
IC50 [8]: > 10 µM
IC50 [9]: > 10 µM
IC50 (Aurora kinase A): > 10 µM
IC50 [10]: > 10 µM
IC50 [11]: > 10 µM

Compound: CCCNNC(=O)c1ccc(Cn2cc(Nc3ncc(Cl)c(-c4cnc5ccccn45)n3)cn2)cc1
IC50 (Histone deacetylase 4): > 20 µM
IC50 [3]: 0.0304 µM
IC50 [4]: > 10 µM
IC50 [5]: 2.38 µM
IC50 [6]: > 10 µM
IC50 [7]: > 10 µM
IC50 [8]: > 10 µM
IC50 [9]: 0.371 µM
IC50 (Aurora kinase A): > 10 µM
IC50 [10]: > 10 µM
IC50 [11]: 9.13 µM
IC50 [1]: 0.973 µM

Compound: COc1cc(F)ccc1-c1cc(Nc2ccc(/C=C/C(=O)Nc3ccccc3N)cc2)ncc1F
IC50 (Histone deacetylase 3): 3.55 µM
IC50 [12]: 0.0684 µM
IC50 (Histone deacetylase 1): > 20 µM
IC50 [13]: > 20 µM

Compound: CCCNNC(=O)CCCCCCn1cc(Nc2ncc(Cl)c(-c3cnc4ccccn34)n2)cn1
IC50 [14]: > 10 µM
IC50 (Histone deacetylase 4): > 20 µM
IC50 [1]: > 10 µM

Compound: O=C(/C=C/c1ccc(Nc2ncc(Cl)c(OC3CCCCC3)n2)cc1)NO
IC50 (Histone deacetylase 3): 7.21 µM
IC50 [12]: 7.89 µM
IC50 (Histone deacetylase 1): > 10 µM
IC50 [13]: 0.646 µM

Compound: N#CC1(CNc2cccc(-c3cc(Nc4cnn(CCCCCCC(=O)Nc5ccccc5N)c4)ncc3Cl)n2)CCOCC1
IC50 (Histone deacetylase 4): > 20 µM
IC50 [1]: > 10 µM

Compound: O=C(CCCCCn1cc(Nc2ncc(Cl)c(-c3cnc4ccccn34)n2)cn1)NO
IC50 (Histone deacetylase 4): > 10 µM
IC50 [1]: 0.566 µM

Compound: N#CC1(CNc2cccc(-c3cc(Nc4cnn(Cc5ccc(C(=O)NO)cc5)c4)ncc3Cl)n2)CCOCC1
IC50 (Histone deacetylase 4): 1.08 µM
IC50 [1]: > 10 µM

Compound: COC[C@@H](C)N[C@H]1CC[C@H](Nc2cc(-c3cccc(NCC4(C#N)CCOCC4)n3)c(Cl)cn2)CC1
IC50 [14]: > 10 µM
IC50 (MV4-11 [15]): 0.003 µM
IC50 (CESS): 0.01 µM
IC50 (Rec1): 0.03 µM
IC50 (KG-1): 0.02 µM
IC50 (PC-9): 0.03 µM
IC50 (HT-29): 0.02 µM
IC50 (A549): 5.78 µM
IC50 [12]: 0.0041 µM
IC50 [1]: > 10 µM

Compound: CCCNNC(=O)CCCCCn1cc(Nc2ncc(Cl)c(-c3cnc4ccc(-c5ccccc5)cn34)n2)cn1
IC50 (Histone deacetylase 4): > 20 µM
IC50 [1]: > 10 µM

Compound: CCCNNC(=O)CCCCCn1cc(Nc2ncc(Cl)c(-c3cnc4ccccn34)n2)cn1
IC50 [14]: > 10 µM
IC50 (Histone deacetylase 4): > 20 µM
IC50 [1]: > 10 µM

Compound: O=C(CCCCCCn1cc(Nc2ncc(Cl)c(-c3cnc4ccccn34)n2)cn1)NO
IC50 (Histone deacetylase 4): > 10 µM
IC50 [1]: 2.81 µM

Compound: CCCNNC(=O)c1ccc(Cn2cc(Nc3ncc(Cl)c(-c4cnc5ccc(-c6ccccc6)cn45)n3)cn2)cc1
IC50 [14]: > 10 µM
IC50 (Histone deacetylase 4): > 20 µM
IC50 [1]: > 10 µM

Compound: O=C(CCCCCCC(=O)Nc1ccccc1)NO [VORINOSTAT]
IC50 (KG-1): 0.79 µM

Next, values leading:

IC50 (Histone deacetylase 4): > 10 µM
IC50 [1]: > 10 µM
Compound: COc1cc(F)ccc1-c1cc(Nc2ccc(NC(=O)CCCCCCC(=O)NO)cc2)ncc1F

IC50 (Histone deacetylase 4): > 10 µM
IC50 [1]: > 10 µM
Compound: COc1cc(F)ccc1-c1cc(Nc2cnn(CCCCCCC(=O)NO)c2)ncc1F

IC50 (Histone deacetylase 4): 4.4 µM
IC50 [1]: > 10 µM
Compound: N#CC1(CNc2cccc(-c3cc(Nc4cnn(CCCCCCC(=O)NO)c4)ncc3Cl)n2)CCOCC1

IC50 (Histone deacetylase 4): 2.5 µM
IC50 [1]: > 10 µM
Compound: N#CC1(CNc2cccc(-c3cc(Nc4cnn(CCCCCC(=O)NO)c4)ncc3Cl)n2)CCOCC1

IC50 (Histone deacetylase 4): > 20 µM
IC50 [1]: > 10 µM
Compound: COc1cc(F)ccc1-c1cc(Nc2ccc(NC(=O)CCCCCCC(=O)Nc3ccccc3N)cc2)ncc1F

IC50 (Histone deacetylase 4): > 10 µM
IC50 [1]: > 10 µM
Compound: COc1cc(F)ccc1-c1cc(Nc2cnn(CCCCCC(=O)NO)c2)ncc1F
